# Source: article PMC7696940, “Effects of Rationally Designed Physico-Chemical Variants of the Peptide PuroA on Biocidal Activity towards Bacterial and Mammalian Cells” (International Journal of Molecular Sciences, 2020)
# Where no end group is shown, it is not given here.
# Legend:
# E. coli and S. aureus = assay: Salt tolerance (MICs under 0-150 mM NaCl, summary); assay type: cell-based, Escherichia coli; Staphylococcus aureus; set-up: key: Up to 50 mM: no effects on antibacterial activity up to 50 mM NaCl but increase in the MICs for E. coli and S. aureus at 100 mM NaCl; Intolerant: not resistant to salt effects even at 50 mM NaCl; Up to 150 mM: no effects on antibacterial activity up to 150 mM NaCl; conditions: MICs for E. coli and S. aureus in MHB with 0, 50, 100 or 150 mM NaCl
# Protocol: The activity of peptides was determined against the Gram-positive Staphylococcus aureus (ATCC 25923), and the Gram-negative Escherichia coli (ATCC 25922) and Pseudomonas aeruginosa (ATCC 9027) bacteria. Selected peptides were also tested against two clinical isolates of methicillin-resistant Staphylococcus aureus (MRSA), M173525 and M180920, kindly provided by Dr P. B. Ward (Microbiology Department, Austin and Repatriation Medical Centre, Heidelberg West, Victoria, Australia). The Minimum inhibitory concentration (MIC) of peptides was determined by the microtitre broth dilution method, as described in Phillips et al.. Briefly, bacteria were grown in Mueller-Hinton Broth (MHB) at 37 °C overnight with shaking (200 rpm). The cultures were adjusted to 0.5 McFarland turbidity standard (approximately 1 × 10^8 colony forming units (CFU)/mL), then diluted 1:100 in MHB (1 × 10^6 CFU/mL). A total of 75 μL of these suspensions were mixed with 25 μL of peptide solutions (final concentrations 250 to 0.5 μg/mL) and the microtitre plates incubated overnight at 37 °C. Positive growth controls (inoculum and MHB, with no peptide) and sterility controls (0.01% glacial acetic) were also included. Post-incubations, the absorbance of cultures at 595 nm was measured using a microplate reader (POLARstar Omega, Germany). […] To evaluate salt sensitivity of peptides up to physiological levels (150 mM NaCl), overnight cultures of S. aureus and E. coli adjusted to 0.5 McFarland turbidity standard were diluted 1:100 in MHB containing 0, 50, 100 or 150 mM NaCl, and the MICs of peptides determined as above. All tests were conducted in triplicate. The results are shown as the mode of values obtained.
# [1] = system: pBlueScript SK+ plasmid DNA; assay: In vitro DNA-binding assay (gel retardation); conditions: 100 ng pBlueScript SK+, peptide 8-500 µg/mL, 1 h room temperature, 1% agarose
# Protocol: The ability of peptides to bind to purified DNA (indicative of in vivo DNA binding potential) was tested by the modified gel retardation assay developed by Alfred et al.. The DNA of pBlueScript SK+ (100 ng) was incubated with peptides (to final concentrations of 8, 16, 32, 64, 125, 250 or 500 µg/mL) in 15 µL volumes made with sterile MilliQ water, the held at room temperature for 1h. Loading dye was added to each sample and the samples electrophoresed on 1% agarose gels. The gels were then immersed in ethidium bromide ([…]) then visualized and imaged
Substance,Salt Tolerance (E. coli and S. aureus),Binding to DNA in vitro (concentration inhibiting plasmid migration) [1]
RKRWWRWWKWWKR-NH2 [Peptide P1],Up to 150 mM,
WRWWKWW-NH2 [Peptide W7],Up to 150 mM,≥ 16 µg/mL
